Experimental data reported in patent US20030148269A1, “Centrifugally-enhanced method of determining ligand/target affinity” (priority 1999, published 2003).
Where two headings read alike, the source gives them in different places.

Experiments:
[1] = Solubility in the centrifuge carrier solvent (buffer), spun without protein; format: physicochemical
Procedure: (§1) Proteins and protein fragments were isolated from recombinant material produced in E. coli as described in detail below. Proteins and protein fragments were dialyzed into standard buffers comprising either a) a mixture of 20 mM ammonium bicarbonate and 1 mM sodium azide, the pH adjusted to pH 7.2 by the addition of acetic acid, or b) 50 mM Tris-HCl, 30 mM KCl, 10 mM magnesium acetate, 10 mM 2-mercaptoethanol, 1 mM sodium azide, and 10% glycerol, pH adjusted to 7.8. In the case of the first buffer system, additional ingredients, specific to each protein, were added to the buffer mixture which included 5 mM 2-mercaptoethanol for erythromycin resistant methylase (Erm-AM), and both 5 mM 2-mercaptoethanol and 10 mM calcium chloride for the stromelysin catalytic domain (SCD). Initial protein or protein fragment concentrations ranged between 100 μM and 1 mM.
Test compounds were made up in concentrated solutions in dimethyl sulfoxide and diluted into the protein or protein fragment buffer solutions such that the final concentration of dimethyl sulfoxide in the buffer solutions was 1% volume/volume. As a result, each compound in the mixture of test compounds had equal access to available binding sites on the target molecule.
The analysis was carried out with a 25-compound library using the spin-screen method of the present invention with the compound concentration gradients being determined by mass spectrometry. Sample preparation, centrifugation, analysis by mass spectrometry, and data analysis were according to the techniques described above under the heading “General Methodology.” The results are shown in FIGS. 3A and 3B. The figures represent planar cuts of the three-dimensional surface contour plot defined by the three axes: m/z, sample fraction, and mass spectral signal intensity. The planar cuts are taken at comparatively high values constant values of m/z. That is to say, at m/z signal levels which detected only the most strongly binding ligands in the 25-compound library.
The analysis was carried out with a 25-compound library using the spin-screen method of the present invention with the compound concentration gradients being determined by mass spectrometry. Sample preparation, centrifugation, analysis by mass spectrometry, and data analysis were according to the techniques described above under the heading “General Methodology.” The results are presented in FIGS. 5A and 5B.

[2] = biological target: T1, erythromycin resistant methylase (Erm-AM) (Streptococcus pneumoniae, UniProt P21236); format: binding; conditions: 25-compound library, mass spectrometry of five fractions, with Erm AM vs buffer only
T1 construct: made in house; host or cells: E. coli BL21(DE3)/pV4, pET-24(+)
Procedure: as §1
(§2) Test compounds were made up in concentrated solutions in dimethyl sulfoxide and diluted into the protein or protein fragment buffer solutions such that the final concentration of dimethyl sulfoxide in the buffer solutions was 1% volume/volume.
The compounds were added to the protein or buffer solutions in 7 mm×20 mm polycarbonate centrifuge tubes, mixed by vortexing, and placed in the centrifuge. Each mixture was then subjected to centrifugation at a speed and for a period of time sufficient to clear the solution of macromolecular target, but not of ligand. Centrifugation was carried out either in a Model TL-100 ultracentrifuge at 100,000 rpm using a TLA-100 rotor, or in a Model L-70 ultracentrifuge at 42,000 rpm using a type 42.2 rotor. (Both centrifuges are manufactured by Beckman Instruments, 1050 Page Mill Road, Palo Alto, Calif. […], USA.)
Following centrifugation, the tubes were removed from the rotor and the tube contents divided into equal volume fractions. Any reasonable number of fractions may be employed; typically four or five fractions are used. To take the fractions, a pipette was carefully inserted into the liquid column in the sample tube to a point just below the liquid meniscus. […] The fractions were individually dispensed into microfuge tubes for analysis.
Mass spectrometric analysis of the samples was performed using either electrospray ionization (ESI) or atmospheric pressure chemical ionization (APCI) techniques. The ESI technique employed either a Model TSQ-700 or a Model LCQ mass spectrometer, and the APCI technique employed a Model LCQ mass spectrometer (both instruments manufactured by the Finnigan Corporation, 355 River Oaks Parkway, San Jose, Calif. 95134, USA).
For ESI analysis, fraction samples were diluted 1:5 with 50% aqueous acetonitrile, leaving the protein or protein fragment in solution. Ten-microliter aliquots, each representing about 10% of the sample, were introduced individually into the instrument by flow injection using 50% aqueous acetonitrile as the carrier. For initial studies with APCI, fractions were likewise diluted 1:5 with 50% aqueous acetonitrile. […] To reduce this background, subsequent samples analyzed by the APCI technique were diluted 1:5 with neat acetonitrile which caused the proteins or protein fragments to release their bound test compounds and precipitate. Sample solutions were then clarified by centrifugation in a microfuge for five minutes prior to analysis by APCI.

[3] = biological target: yeast ribosomes isolated from Saccharomyces cerevisiae; assay: spin-screen: centrifugation with yeast ribosomes, GFP fluorescence in each of five fractions
[4] = biological target: T2, stromelysin catalytic domain (SCD) (Homo sapiens, UniProt P08254); assay: Affinity (Ki) for SCD previously determined by another method; format: binding
Target sequence in this assay (P08254 100-273): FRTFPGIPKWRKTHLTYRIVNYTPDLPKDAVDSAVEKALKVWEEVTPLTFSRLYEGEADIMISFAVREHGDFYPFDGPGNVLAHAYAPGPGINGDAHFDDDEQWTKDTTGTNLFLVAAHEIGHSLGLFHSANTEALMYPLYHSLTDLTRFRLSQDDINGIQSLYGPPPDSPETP

[5] = biological target: T2, stromelysin catalytic domain (SCD); assay: Spin-screen (centrifugation) affinity binding to SCD, concentration gradients by HPLC; design: coding for amino acid residues 81-256 plus an initiating methionine aminoacyl residue; initiating methionine (N); made in house; host or cells: E. coli BL21(DE3)/pLysS, plasmid pETST-81-256 (pET3d); conditions: 100 μM ligand, 100 μM SCD; HPLC of five fractions; with SCD vs buffer only
Procedure: as §1, §2
Target sequence in this assay (P08254 98-272): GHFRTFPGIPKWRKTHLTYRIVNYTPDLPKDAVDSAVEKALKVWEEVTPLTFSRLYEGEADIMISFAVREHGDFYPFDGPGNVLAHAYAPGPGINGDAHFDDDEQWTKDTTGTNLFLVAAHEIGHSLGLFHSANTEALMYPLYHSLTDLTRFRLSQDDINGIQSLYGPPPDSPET
The compounds were added to the protein or buffer solutions in 7 mm×20 mm polycarbonate centrifuge tubes, mixed by vortexing, and placed in the centrifuge. […]

[6] = buffer with 1% dimethyl sulfoxide

T1 sequence (P21236 whole entry, change not shown): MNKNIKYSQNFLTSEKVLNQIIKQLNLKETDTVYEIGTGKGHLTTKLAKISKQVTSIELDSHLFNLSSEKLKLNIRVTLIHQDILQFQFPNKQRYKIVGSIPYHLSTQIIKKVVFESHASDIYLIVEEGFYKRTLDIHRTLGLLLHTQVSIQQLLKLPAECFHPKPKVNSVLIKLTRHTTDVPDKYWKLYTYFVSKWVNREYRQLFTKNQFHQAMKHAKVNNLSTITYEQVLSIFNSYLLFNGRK

Molecule | Binding to Erm AM from concentration gradient after centrifugation [2] | fraction of total fluorescence (fraction of total fluorescence) [3] | also measured
Nc1nc(NC2CCCCC2)nc(N2CCCCC2)n1 [N-cyclohexyl-6-(1-piperidinyl)-1,3,5-triazine-2,4-diamine] | strongly bind | – | Solubility in the carrier solvent [1]: soluble; Binding to Erm AM from concentration gradient after centrifugation ([2]; listed as m/z=277): bound more strongly to Erm-AM than the compound at m/z=286
O=c1cc(O)c2ccccc2n1-c1ccc(OCc2ccccc2)cc1 [4-hydroxy-1-[4-(phenylmethoxy)phenyl]-2(1H)-quinoline] | strongly bound | – | Solubility in the carrier solvent [1, 6]: soluble; Binding to Erm AM from concentration gradient after centrifugation ([2]; listed as 4-hydroxy-1-[4-(phenylmethoxy)-phenyl]-2(1H)-quinoline): bind to Erm AM
GFP-EF3 fusion protein GFP-980-1013 | – | 0.2 | –
N#Cc1ccc(-c2ccc(O)cc2)cc1 [4′-hydroxy-1,1-biphenyl-4-carbonitrile] | – | – | Ki [4]: ~1 mM; Binding to SCD from concentration gradient after centrifugation [5]: binds weakly
Nc1cc(Cl)c(S(N)(=O)=O)cc1S(N)(=O)=O [4-amino-6-chloro-1,3benzenesulfonamide] | medium binding | – | Solubility in the carrier solvent [1, 6]: soluble; Binding to Erm AM from concentration gradient after centrifugation ([2]; listed as 4-amino-6-chloro-1,3-benzenesulfonamide): bind to Erm AM
GFP-EF3 fusion protein GFP-980-1025 | – | 0.2 | –
O=C(Nc1ccc(C(=O)O)cc1)Nc1cccc(C(F)(F)F)c1 [4-[[[[3-(trifluoromethyl)phenyl]amino]-carbonyl]amino]benzoic acid] | bound weakly | – | Binding to Erm AM from concentration gradient after centrifugation ([2]; listed as 4-[[[(3-trifluoromethyl)-phenyl]amino]carbonyl]amino]benzoic acid): bind to Erm AM
CN(CCCc1c(O)cc(Cl)cc1Cl)c1nc(N)nc(NC2CCCCC2)n1 [N′cyclohexyl-N-[3-(2,4-dichloro-6-hydroxyphenyl)propyl]-N-methyl-1,3,5triazine-2,4,6-triamine] | strongly bind | – | Solubility in the carrier solvent [1]: insoluble
O=C(O)c1ccccc1C(=O)OC(c1ccccc1)c1cccc(Cl)c1 (centres unmarked) [1,2-benzenedicarboxylic acid, mono[(3-chlorophenyl)phenylmethyl] ester] | bound strongly | – | Binding to Erm AM from concentration gradient after centrifugation ([2]; mono [(3-chloro-phenyl)phenylmethyl] ester): bind to Erm AM
GFP-EF3 fusion protein GFP-980-1008 | – | 0.2 | –
GFP-EF3 fusion protein GFP-980-1019 | – | 0.2 | –
GFP-EF3 fusion protein GFP-980-1008:1025-1031 | – | 0.2 | –
N-[3-(2,4-dichloro-6-hydroxyphenyl)propyl]-N′-(2,3-dihydro-1H-inden-2-yl) | strongly bind | – | Solubility in the carrier solvent [1]: insoluble
Nc1nc(NC2CCCCC2)nc(-c2ccc(O)cc2)n1 [4-[4-amino-6-(cyclohexylamino)-1,3,5-triazin-2-yl]phenol] | strongly bind | – | Solubility in the carrier solvent [1]: soluble
